# Measured values reported in patent publication US7452887B2, “Quinoline- and isoquinoline-based compounds exhibiting ATP-utilizing enzyme inhibitory activity, and compositions, and uses thereof” (Amphora Discovery Corporation, priority 2004, dated 2008).
# Experiments:
# DYRK2 = target: T1, DYRK2 (Homo sapiens, UniProt Q92630); experiment: HTS ATP-utilizing enzyme assay, off-chip mobility-shift (Caliper HTS 250); format: biochemical; settings: test compound 10 μM, kinase listed = active (greater than six-sigma from the mean activity of inactive compounds)
# T1 sequence (Q92630 1-601): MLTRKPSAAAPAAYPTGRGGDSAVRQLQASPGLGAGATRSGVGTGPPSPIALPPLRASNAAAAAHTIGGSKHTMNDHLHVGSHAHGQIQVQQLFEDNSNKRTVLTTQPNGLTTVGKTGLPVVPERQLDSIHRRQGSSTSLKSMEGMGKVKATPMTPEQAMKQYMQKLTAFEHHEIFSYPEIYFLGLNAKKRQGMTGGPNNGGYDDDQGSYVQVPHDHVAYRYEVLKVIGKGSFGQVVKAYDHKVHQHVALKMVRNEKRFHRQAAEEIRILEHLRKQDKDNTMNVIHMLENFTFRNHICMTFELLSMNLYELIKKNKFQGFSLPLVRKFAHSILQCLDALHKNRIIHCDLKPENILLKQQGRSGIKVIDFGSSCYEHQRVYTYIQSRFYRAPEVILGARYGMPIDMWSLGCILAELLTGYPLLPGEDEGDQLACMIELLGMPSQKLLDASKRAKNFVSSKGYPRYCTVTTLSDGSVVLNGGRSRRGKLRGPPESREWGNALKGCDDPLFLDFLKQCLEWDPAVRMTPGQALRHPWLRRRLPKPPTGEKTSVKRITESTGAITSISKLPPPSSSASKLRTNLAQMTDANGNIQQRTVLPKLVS
# Procedure, shortened: (§1)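 Single-point screen, 10 μM compound; kinase + peptide substrate, HEPES pH 7.5/Triton X-100/BSA; 2.5 hrs, 20–22° C.; EDTA stop. Readout: substrate vs phosphoproduct ratio by off-chip mobility shift. Hits called at six-sigma limits.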
# CHEK1 = target: T2, CHEK1 (Homo sapiens, UniProt O14757); experiment: as above; format: biochemical; settings: test compound 10 μM, kinase listed = active (greater than six-sigma from the mean activity of inactive compounds)
# T2 sequence (O14757 1-476): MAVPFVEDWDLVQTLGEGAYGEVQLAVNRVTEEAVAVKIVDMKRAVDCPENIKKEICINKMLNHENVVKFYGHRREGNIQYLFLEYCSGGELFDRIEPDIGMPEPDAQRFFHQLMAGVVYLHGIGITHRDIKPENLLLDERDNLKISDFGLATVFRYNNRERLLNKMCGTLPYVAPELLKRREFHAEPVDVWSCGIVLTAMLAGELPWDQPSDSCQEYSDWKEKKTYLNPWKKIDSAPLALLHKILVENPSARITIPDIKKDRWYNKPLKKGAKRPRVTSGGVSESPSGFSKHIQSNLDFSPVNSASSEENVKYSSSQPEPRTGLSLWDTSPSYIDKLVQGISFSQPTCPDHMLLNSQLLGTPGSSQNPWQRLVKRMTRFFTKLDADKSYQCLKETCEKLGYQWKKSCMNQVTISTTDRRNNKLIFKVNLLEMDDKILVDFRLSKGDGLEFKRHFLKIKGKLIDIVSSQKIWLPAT
# Procedure, shortened: as §1
Activity (DYRK2),Activity (CHEK1),Structure (SMILES)
DYRK2,,CN1CCN(c2ccc(Nc3ccnc4ccc(-c5ccc(O)cc5)cc34)cc2)CC1 [4-(4-(4-(4-methylpiperazin-1-yl)phenylamino)quinolin-6-yl)phenol]
DYRK2,,CN1CCN(c2ccc(Nc3ccnc4ccc(-c5ccc(F)cc5)cc34)cc2)CC1 [6-(4-fluorophenyl)-N-(4-(4-methylpiperazin-1-yl)phenyl)quinolin-4-amine]
DYRK2,CHEK1,COc1ccc(-c2ccc3nccc(Nc4ccc(N5CCNCC5)cc4)c3c2)cc1 [6-(4-methoxyphenyl)-N-(4-(piperazin-1-yl)phenyl)quinolin-4-amine]
DYRK2,,COc1ccc(-c2ccc3nccc(N(C)c4ccc(N5CCN(C)CC5)cc4)c3c2)cc1 [6-(4-methoxyphenyl)-N-methyl-N-(4-(4-methylpiperazin-1-yl)phenyl)quinolin-4-amine]
,CHEK1,c1ccc(-c2ccc3nccc(Nc4ccc(N5CCNCC5)cc4)c3c2)cc1 [6-phenyl-N-(4-(piperazin-1-yl)phenyl)quinolin-4-amine]
DYRK2,CHEK1,CN1CCN(c2ccc(Nc3ccnc4ccc(-c5ccc6ccccc6c5)cc34)cc2)CC1 [N-(4-(4-methylpiperazin-1-yl)phenyl)-6-(naphthalen-2-yl)quinolin-4-amine]
DYRK2,,CN1CCN(c2ccc(Nc3ccnc4ccc(-c5ccncc5)cc34)cc2)CC1 [N-(4-(4-methylpiperazin-1-yl)phenyl)-6-(pyridin-4-yl)quinolin-4-amine]
DYRK2,,Cc1ccccc1-c1ccc2nccc(Nc3ccc(N4CCN(C)CC4)cc3)c2c1 [N-(4-(4-methylpiperazin-1-yl)phenyl)-6-o-tolylquinolin-4-amine]
